From patent US11802107B2, “Compounds and methods of use” (Signum Biosciences, Inc., priority 2017, dated 2023)
pIC50: −log10 of the molar value. Converted amounts (≈) assume the structure as drawn.

Key:
IL-17 = assay: P. acnes-induced IL-17 protein on human PBMCs (ELISA); assay type: cell-based; conditions: PBMC, PBMCs + live P. acnes 1:1, test material 30 PM, 24 hours
Protocol: (§1) Cryopreserved human Peripheral Blood Mononuclear cells (PBMCs) from healthy adult donors were obtained from Zen Bio, Inc (Cat No. SER-PBMC-F). Cells were cultured in 12-well plates with lymphocyte media (Cat No. LYMPH-1) and incubated with test materials ([…]) and live P. acnes (ATCC® 6919TM) at 1:1 PBMC: P. acnes bacteria ratio for 24 hours at 37° C. and 5% CO2. After incubation, cell media supernatants were harvested and used to measure pro-inflammatory cytokine levels (IL-8, TNF-α, IL-1b, IL-17) using ELISA kits (BD Biosciences® #557966, #555212, #555244; R&D Systems® #DY317). Total RNA was extracted from cells using the RNAqueous® kit (Ambion®; Cat No. 1912) and cDNA was obtained using the High Capacity RNA-to-cDNA kit (Applied Biosystems®; Cat No. 4387406). Quantitative PCR (qPCR) was performed using the TaqMan® Fast Advanced Master Mix (Applied Biosystems®; Cat No. 4444556) and specific TaqMan®-probes human gene primers CXCL8 (IL-8), IL1B (IL-1b), TNF (TNF-α), IL17A (IL-17A) and GAPDH to calculate the relative gene fold expression change per treatment. Gene expression analysis was performed using the comparative Ct method (also known as the 2-[delta][delta]Ct) approach by comparing the Ct values of P. acnes-only treated cells with the untreated samples and normalized to GAPDH gene expression as endogenous housekeeping gene.

P. acnes (ATCC 6919) [1] = assay: Minimal inhibitory concentration (MIC) against P. acnes; assay type: cell-based, Propionibacterium acnes; conditions: Cutibacterium acnes, ATCC6919, 72 h, P. acnes ATCC 6919, 10^6 CFU/mL, read-out: MIC
Protocol: To determine minimal inhibitory concentration (MIC), reagents were dissolved in vehicle (5% v/v) and then added to bacteria suspension. P. acnes (ATCC® 6919TM) at 10^6 CFU/mL was incubated with test materials at the concentrations of two-fold serial dilution (0.25-500 μg/mL) and incubated for 72 hours (P. acnes).

TNF-α = assay: P. acnes-induced TNF-α protein on human PBMCs (ELISA); assay type: cell-based; conditions: PBMCs + live P. acnes 1:1, test material 30 PM, 24 hours
Protocol: as §1

IL-1b = assay: P. acnes-induced IL-1b protein on human PBMCs (ELISA); assay type: cell-based; conditions: PBMC, PBMCs + live P. acnes 1:1, test material 30 PM, 24 hours
Protocol: as §1

P. acnes (ATCC 6919) [2] = assay: Minimal bactericidal concentration (MBC) against P. acnes; assay type: cell-based, Propionibacterium acnes; conditions: Cutibacterium acnes, ATCC6919; P. acnes 10^7 CFU/mL, in PBS, anaerobic conditions
IL-8 [3] = assay: Peptidoglycan (PGN)-induced IL-8 on NHEKs; assay type: cell-based, human; conditions: Homo sapiens; NHEK, PGN 10 μg/mL, 24 hours, ELISA; read-out: PGN-NHEK 1L-8 Protein IC50
Protocol: (§2) Normal human epidermal keratinocytes (NHEKs) from neonatal donors were obtained from Thermo-Fisher (Cat No. C-001-5C). Cells were cultured in 96-well plates for 24 hours with EpiLife media (Cat No. MEPI500CA) supplemented with keratinocytes growth supplement (Cat No. S0015). On Day 2, media was removed and replaced with supplement-depleted medium for 24 hours. On Day 3, media was removed and cells were pre-treated with test materials (≤1 μM) for 2 hours and later co-treated with test materials and PGN (Sigma Aldrich, Cat No. 77140) at 10 μg/mL and incubated for 24 hours at 37° C. and 5% CO2. PGN is a TLR-2 agonist. After incubation, cell media supernatants were harvested and used to measure pro-inflammatory cytokine levels (IL-8) using ELISA kit (BD Biosciences® #555244). Results were represented as percent of inhibition relative to untreated and PGN-only treated cells. IC50 values were determined by non-linear regression analysis using the four-parameter logistic equation.

HCAP18 = assay: NHEK antimicrobial peptide gene expression, hCAP18; assay type: cell-based, human; conditions: 10 μM, 24 hours, qPCR, normalized to GAPDH
Protocol: (§3) Normal human epidermal keratinocytes (NHEKs) from neonatal donors were obtained from Thermo-Fisher (Cat No. C-001-5C). Cells were cultured in 6-well plates for 24 hours before treatments with EpiLife media (Cat No. MEPI500CA) supplemented with keratinocytes growth supplement (Cat No. 50015). On Day 2, media was removed and incubated with test materials (10 μM) for 24 hours at 37° C. and 5% CO2. On Day 3, total RNA was extracted from cells using the RNAqueous® kit (Ambion®; Cat No. 1912) and cDNA was obtained using the High Capacity RNA-to-cDNA kit (Applied Biosystems®; Cat No. 4387406). Quantitative PCR (qPCR) was performed using the TaqMan® Fast Advanced Master Mix (Applied Biosystems®; Cat No. 4444556) and specific TaqMan®-probes human gene primers DEFB4B (hBD2), DEFB103 (hBD3), HCAP18 and GAPDH to calculate the relative gene fold expression change per treatment. Gene expression analysis was performed using the comparative Ct method (also known as the 2-[delta][delta]Ct) approach by comparing the Ct values of the treated samples with the untreated samples and normalized to GAPDH gene expression as endogenous housekeeping gene. Results were represented as fold-expression/untreated cells.

DEFB103 (hBD3) = assay: NHEK antimicrobial peptide gene expression, hBD3; assay type: cell-based, human; conditions: 10 μM, 24 hours, qPCR, normalized to GAPDH
Protocol: as §3

[4] = test system: P. acnes (ATCC 6919) biofilms; assay: P. acnes biofilm eradication (MBEC), crystal violet; assay type: cell-based, Propionibacterium acnes; conditions: 24 hours, ≥80% eradication vs vehicle
Protocol: P. acnes (ATCC® 6919™) was cultured as described above. Bacteria biofilms were established by seeding P. acnes cultures in 96-well plates and incubating for 24 hours without agitation. Later, biofilms were incubated with test materials for 24 hours. Remaining biofilms were washed and stained with crystal violet. […] The absorbance was measured at 595 nm in a microplate reader. […] Results from disk diffusion susceptibility testing (Kirby-Bauer Method) after 72 hours incubation were also obtained.

IL-8 [5] = assay: P. acnes-induced IL-8 protein on human PBMCs (ELISA); assay type: cell-based; conditions: PBMCs + live P. acnes 1:1, test material 30 PM, 24 hours
Protocol: as §1

[6] = test system: subjects with mild to moderate acne; assay: 8-week clinical study in subjects with mild to moderate acne; assay type: in vivo; parameters: scale not given here; conditions: E 1% w/w, BPO 3% w/w, human
Description: Subjects used the assigned product at home for 8 weeks. Subjects returned post baseline at week 2, 4 and 8. At each visit subjects underwent expert clinical grading and test site photography. […] The severity of acne signs and symptoms on the faces of >18 yo subjects were clinically assessed by IGA scale during an 8-week Study period. In addition, UV light mode was utilized to observe porphyrins fluorescence (orange-red dots).

DEFB4B (hBD2) = assay: NHEK antimicrobial peptide gene expression, hBD2; assay type: cell-based, human; conditions: 10 μM, 24 hours, qPCR, normalized to GAPDH
Protocol: as §3

IL-31 = assay: Anti-CD3/CD28+IL-4-induced IL-31 on PBMCs; assay type: cell-based; conditions: Homo sapiens, PBMC, anti-CD3/CD28 beads + 50 ng/mL IL-4, 48 hours, ELISA, read-out: TCR/IL-4-PBMCs IL-31 IC50
Protocol: Cryopreserved human Peripheral Blood Mononuclear cells (PBMCs) from healthy adult donors were obtained from Zen Bio, Inc (Cat No. SER-PBMC-F). Cells were cultured in 96-well plates with lymphocyte media (Cat No. LYMPH-1) and were pre-treated with test materials (≤100 μM) for 2 hours and later co-treated with test materials and anti-CD3/CD28 beads (Thermo-Fisher; Cat No. 11131D) and 50 ng/mL recombinant human IL-4 (R&D Systems® #204-IL) for 48 hours at 37° C. and 5% CO2. After incubation, cell media supernatants were harvested and used to measure cytokine levels (IL-22, IL-31) using ELISA kits (R&D Systems® #DY782, #DY2824). Results were represented as percent of inhibition relative to untreated and anti-CD3/CD28+IL-4 only treated cells. IC50 values were determined by non-linear regression analysis using the four-parameter logistic equation.

IL-13 = assay: Concanavalin-A-induced IL-13 on PBMCs; assay type: cell-based; conditions: Homo sapiens, PBMC, ConA, 24 hours, ELISA
IL-8 [7] = assay: TPA-induced IL-8 on NHEKs; assay type: cell-based; conditions: Homo sapiens; NHEK, TPA 5 ng/mL, 24 hours, ELISA
Protocol: as §2, with “TPA” for “PGN”, “P8139)” for “77140)”, “5 ng/mL” for “10 μg/mL”, “CO2.” for “CO2. PGN is a TLR-2 agonist.”, “TPA-only” for “PGN-only”

Swiss Webster (ICR) mice = assay: TPA-induced skin irritation in vivo model (mouse ear); conditions: topical @ 1% w/v, 24 hour
Protocol: Outbred male Swiss Webster (ICR) mice were purchased from Hilltop Lab Animals (Scottdale, PA) and were used between 10 and 12 weeks of age and we followed a similar protocol previously described (Gordon et al., 2008). Mice received 1.2 μg/20 μl TPA dissolved in acetone (10 μl applied both to the dorsal and ventral surfaces of the mouse ear using a solvent pipette) to each ear to induce acute irritation (6 per group). Test Materials were co-treated with TPA or applied 5 minutes after TPA dose, at various concentrations (0.6 to 800 μg/20 μl) in ethanol. After 24 hour treatment, edema was measured by ear thickness.

Balb/C mice = assay: Oxazolone-induced delayed-type hypersensitivity (DTH) in vivo model; conditions: Mus musculus, topical @1%, 24 hours, read-out: Edema % inhibition
Protocol: Inbred male Balb/C mice were purchased from Hilltop Lab Animals (Scottdale, PA) and were used between 8 and 10 weeks of age. Mice backs were shaved and 100 μl of 3% v/v Oxazolone (Sigma Aldrich, Cat No. E0753) in acetone/olive oil (4:1) was applied to dorsal skin for sensitization. On Day 7, ears were challenged with 0.5% v/v Oxazolone and 30 minutes after challenge, test materials at 3% w/v were applied to ears (10 μl applied both to the dorsal and ventral surfaces of the mouse ear using a solvent pipette) and 24 hours later, skin thickness (edema) was measured. A 6-mm punch biopsy was obtained from each ear, snap frozen in liquid nitrogen. Ear skin biopsy punches were pulverized using FastPrep®-24 Biopulverizer (MP Biomedical, CatNo. 116004500) and Lysing Matrix A tubes (CatNo. 16910050). Protein extracts were obtained using 500 μL/tissue of cold T-PER buffer (ThermoFisher, CatNo. 78510) with Protease inhibitors (Sigma-Aldich, CatNo. 58820-20TAB). Soluble protein fractions were used to measure cytokine levels (IL-4) using ELISA kit (BD Biosciences® #555232). Results were represented as percent of inhibition relative to unsensitized and sensitized-only treated animals. Vehicle for presently disclosed compounds was 60:40 H2O:EtOH and 1:1 Acetone:EtOH for AN2718. (n=5-15 animals per treatment group).
Compound C was further analyzed at various dosages against 0.4 mg/ear of […] by the above protocol, data representing the average±S.E. of cumulative data from three independent experiments (n=12-15 mice per group) is shown below: […]

Compound: O=C(OOC(=O)c1ccccc1)c1ccccc1 [Benzoyl Peroxide, reference compound]
- inhibition at 30 pM (IL-17): 15%
- MIC (P. acnes (ATCC 6919) [1]): 200 µg/mL (≈ 826 µM)
- TNFa-Protein % inhibition (TNF-α): 0%
- inhibition at 30 pM (IL-1b): 33%
- MBC (P. acnes (ATCC 6919) [2]): > 200 µg/mL
- pIC50 (IL-8 [3]): < 6.00
- hCAP18 gene expression (HCAP18): 2.8 Fold-expression/untreated cells
- hBD3 gene expression (DEFB103 (hBD3)): 1.2 Fold-expression/untreated cells
- MBEC [4]: 367 μg/mL and (1515) μM
- IL-8 Protein % inhibition (IL-8 [5]): 78%
- Investigator Global Assesment (IGA) Scale ([6]; 2 week): 2
- Investigator Global Assesment (IGA) Scale ([6]; 4 week): 1
- Investigator Global Assesment (IGA) Scale ([6]; 8 week): 1
- Investigator Global Assesment (IGA) Scale ([6]; Baseline): 3
- hBD2 gene expression (DEFB4B (hBD2)): 1.6 Fold-expression/untreated cells

Compound: C=CC[C@@H]1/C=C(\C)C[C@H](C)C[C@H](OC)[C@H]2O[C@@](O)(C(=O)C(=O)N3CCCC[C@H]3C(=O)O[C@H](/C(C)=C/[C@@H]3CC[C@@H](O)[C@H](OC)C3)[C@H](C)[C@@H](O)CC1=O)[C@H](C)C[C@@H]2OC [FK506, reference compound]
- pIC50 (IL-31): 9.40
- pIC50 (IL-13): 6.22
- pIC50 (IL-8 [7]): 8.00
- MPO (% inhibition) (Swiss Webster (ICR) mice): 81%
- Edema (% inhibition) (Swiss Webster (ICR) mice; ear thickness): 0%
- inhibition in vivo at 1 % (Balb/C mice): 32%
